Experimental data as given in patent US20240408143A1, “METHODS FOR CULTURING MESENCHYMAL STEM CELLS, COMPOSITIONS AND IMPLEMENTATIONS THEREOF” (Pandorum Technologies Private Limited, priority 2021, published 2024).
Counter-ions that a name gives are not always drawn.

Columns and labels:
hBM-MSCs [1] = assay: Yield of exosomes from primed hBM-MSCs; type: cell-based, human; settings: priming of hBM-MSCs, compared to untreated (naïve) and other priming agents
Protocol: hBM-MSC was cultured in xeno-free media recommended by the manufacturer, hBM-MSC cells were grown to reach confluency of (80-90) % and treated with a Nrf2 activator (DMF-100 μM) for 24 hours before shifting and maintaining the cells in EV collect media for 24-72 hours (see example 3.3). After 72 hours, condition media was collected, and exosome isolation was performed using iodixanol density gradient protocol (as described in example 4.4).

hBM-MSCs [2] = assay: Secretome analysis of primed hBM-MSCs by ELISA; type: cell-based, human; settings: vs control/untreated
Protocol: hBM-MSCs were cultured in xeno free media along with a replacement of 10% and 20% of CSSC-derived conditioned media (CSSC-CM) to reach a confluence of 80-90%. The media was then subsequently shifted to EV collect for 24-72 hours and primed conditioned media was collected (as described in example 1.1, and 1.2), and exosome isolation was performed by iodixanol density gradient method (as described in example 4.4) and enriched exosomes were obtained. Homogenous fraction F9 was considered for further functional analysis. The secretome analysis was performed using ELISA, detecting the levels of HGF, VEGF, sFLT1, IL-6, NGF.
hBM-MSCs were primed with various priming agents (small molecules) and the secretome was collected (see example 3.2-3.6). The secretome analysis was performed using ELISA, and the levels of HGF, VEGF, NGF, IL-6, sFLT1, SDF1 were detected. FIGS. 6A-6F depict bar graphs of the quantification of the secreted protein levels of HGF, VEGF, NGF, IL-6, sFLT1, and SDF-1 from hBM-MSCs primed with curcumin, 4-OI, DMF, or the combination of curcumin conditioned media and DMF.

[3] = test system: NASH-induced liver spheroids; assay: Treatment of NASH-induced human liver spheroids, marker staining and albumin ELISA; type: cell-based; settings: treatment at D17-D19 after NASH induction, ELISA at 24, 48, 72 hours; HGF 40 ng/ml
Protocol: The protocol for generating human liver spheroids and inducing a NASH phenotype in the human liver spheroids for the present study was as follows: A mix of primary hepatocytes and liver stellate cells from human donors were co-cultured at a 70:30 ratio (70 hepatocytes to 30 liver stellate cells). The cell mixture was seeded on ultra-low attachment plates and cultured to form viable liver spheroids. […] The NASH induction protocol was as follows: On day 7 post seeding, the spheroids were treated with 600 μM free fatty acid (FFA) mixture consisting of Oleic acid and Palmitic acid at a weight ratio of 2:1 for 6 days with media change every other day. After 6 days of FFA treatment (13 days post seeding), 20 ng/mL of TGF β1 was added to the FFA-containing media for a further two days of combined FFA and TGFβ1 treatment. At day 15 post seeding (after 8 days of FFA treatment and 2 days of combined FFA and TGFβ1 treatment), the media was changed to TGF β1-only treatment, with 20 ng/mL TGF β1 and without the FFA mix. […], at day 19 post seeding, the spheroids and the conditioned media were harvested for characterization. […]
Secreted albumin levels is another marker of liver health. […] The secreted albumin in the culture medium was quantified based on ELISA measurements. […]

[4] = test system: NASH-induced liver spheroids; assay: Microarray gene expression profiling of NASH-induced human liver spheroids; type: cell-based
From the text: As described herein above and shown in FIGS. 15A-15F, the effect on the liver spheroids of treatment with disease-state induction agents such the FFA mixture or TGFβ1 and/or with therapeutic agents such as the exosomes can be assayed one marker (or a new markers) at a time with techniques such as immune-staining and ELISA. However, a much larger count (dozens, hundreds, thousands) of markers may be assay simultaneously using high-throughput techniques, such as microarray or next generation sequencing (NGS). FIG. 16A depicts a heatmap of changes in gene expression of liver spheroids based on microarray hybridization data. Microarray hybridization data was acquired as follows: After growth of liver spheroid samples and treatment with NASH-induction agents and/or with therapeutic agents as describe above, the liver spheroids were isolated, lysed, and mRNA was isolated, then converted to sequences of complementary DNA (cDNA). The cDNA samples were then applied to an Agilent® microarray and read with a microarray reader. The microarray analysis was performed for a predetermined transcriptome set of 22,473 genes (included in the microarray) using standard methods to obtain normalized expression values. […]
The gene expression levels of the liver spheroids in each of the different liver spheroid states were also represented and stored, respectively, as feature vectors (“spheroid state feature vectors”), with each element of a given spheroid state feature vector being a level of expression of one of the genes assayed in the microarray. The similarity (or lack of similarity) of the gene expression profile between different states was determined based on a measure of distance between pairs of feature vectors in an n-dimensional space, n being the number of genes represented in each of the feature vectors. […]

MSCs [5] = assay: MSC viability by MTT assay after ATRA treatment; type: cell-based; settings: 0.1 μM to 500 μM for 24 and 48 hours; all treated MSCs except 0.1 μmol/L
Protocol: (§1) ATRA is found to increase the viability of MSCs. This was ascertained as the MSCs were treated with various concentrations of ATRA (0.1 μM to 500 μM) for 24 and 48 hours and their viability were examined by MTT assay. […] ATRA elevated the PGE2 levels. […] ATRA increased the expression of genes involved in MSC survival, migration and angiogenesis.

MSCs [6] = assay: Quantitative real time-PCR of MSCs treated with ATRA; type: cell-based; settings: 1, 10, 100 μmol/L
Protocol: as §1

MSCs [7] = assay: PGE2 levels in MSCs pre-treated with ATRA; type: cell-based; settings: 1, 10, 100 μmol/L, dose-dependent
Protocol: as §1

Molecule | yield of exosomes (hBM-MSCs [1]) | secreted HGF level (hBM-MSCs [2]) | secreted IL-6 level (hBM-MSCs [2]) | secreted NGF level (hBM-MSCs [2]) | further results
C=C(CC(=O)OCCCCCCCC)C(=O)O [4-OI, 4 Octyl itaconate] | higher yield | significant increase | attenuated | enhanced | 
HGF: 40 ng/ml hepatic growth factor used as comparison treatment of NASH-induced liver spheroids |  |  |  |  | albumin secretion [3]: did not result in increased; recovery based on gene expression patterns, Jaccard Similarity Index coordinates ([4]; FIGS. 18A-18C gene sets): substantially more similar to the diseased state; gene expression profile of 287 liver specific genes, cluster analysis ([4]; treatment after NASH induction): most closely resembled the gene expression profile of the Diseased liver spheroid state; gene expression profile, principal component analysis ([4]; treatment at D17-D19 after NASH induction, HGF 40 ng/ml): substantially unchanged
CC1=C(/C=C/C(C)=C/C=C/C(C)=C/C(=O)O)C(C)(C)CCC1 [ATRA, all-trans retinoic acid] |  |  |  |  | MSC viability (MSCs [5]): significantly higher; mRNA levels of COX-2, HIF-1, CXCR4, CCR2, VEGF, Ang-2 and Ang-4 (MSCs [6]): elevated in a dose dependent manner; PGE2 levels (MSCs [7]): significantly increased
COC(=O)/C=C/C(=O)OC [DMF, Dimethyl fumarate] | higher yield | significant increase | attenuated | increase | secreted SDF-1 level (hBM-MSCs [2]): increase; secreted sFLT1 level (hBM-MSCs [2]): increase
COc1cc(/C=C/C(=O)CC(=O)/C=C/c2ccc(O)c(OC)c2)ccc1O [curcumin, Curcumin] |  |  | attenuated |  | 
